According to US11826341B2, “Baicalein analogs for use in neuroprotection and regulation of immune reactivity” (THE HONG KONG POLYTECHNIC UNIVERSITY, priority 2021, dated 2023):
Entries after “also recorded” stand apart in the source; their conditions may differ.

Experiments:
[1] = tested on: CD4+ T cells; test: Flow cytometry of CD4+ T cells in retina and superior cervical lymph nodes after ischemia/reperfusion; format: in vivo, mice; details: 100 μM
Protocol: (A) 1 wk representative flow images and (B) quantification of the CD4+ cell percentage in the retina at 1 wk and 4 wks timepoint. Flow cytometry quantification of frequencies of subsets of CD4+ T cells in the draining LNs of the eye taken from mice at 1 wk (C) and 4 wks (D) after acute ischemic injury in vehicle or 100 μM baicalein given group. Shown were percentages of CD4+ T cells that expressed IFN-γ, IL-17, IL-4, IL-10 or TGF-β among fresh-isolated total LN lymphocytes. […] Th1, Th2, Th17, and Treg cells, again were divided based on the expression profile of hallmark cytokines: IFN-γ (TH1), IL-4 (TH2), IL-10 (TH2), IL-17 (TH17), and TGF-β (Treg)^16.

[2] = tested on: RGCs; test: RGC survival in vivo after retinal ischemia/reperfusion injury (Brn-3a whole-mount retina); design: species or system mice; details: 4 weeks after ischemia/reperfusion, injured control 2,314+/−383, uninjured 3,901+/−145
Protocol: (§1) (A) representative photomicrographs showing Brn-3a staining a whole-mounted retina from four weeks after ischemia injury in vehicle, 10 μM or 100 μM baicalein group; (B) bar graph quantifying the number of survived RGCs in 4 weeks post-injury retina from vehicle, 10 μM or 100 μM baicalein group; (C) bar graph the number of live primary RGC survival rate in vehicle, 1 μM baicalein group. Bar=20 μm. *P<0.05; **P<0.01 value was statistically analyzed by one-way ANOVA.
(§2) Example 1—Baicalein improves RGCs survival in vitro culture or after ischemia/reperfusion damages. To study the effect of baicalein on retinal neurons, we carried out in vitro RGC cultures and in vivo studies of RGCs survival in experimental models of retinal ischemia/reperfusion injury. RGC density dropped from 3,901+/−145 cells/mm^2 to 2,314+/−383 cells/mm^2 at 4 weeks following ischemia/reperfusion injury. […] Moreover, purified mouse RGCs were cultured with vehicle, 1 μM or 10 μM Baicalein for 48 hours.

[3] = tested on: human microglia HMC3 cell line; test: Cytokine array of culture media after LPS and ATP challenge; format: cell-based; details: 1 μM or 10 μM for 42 hours after 6 hours LPS and 30 mins ATP
Protocol: (§5) (A) Quantification the averaged pixel density of selected cytokines produced by human microglia cell line HMC-3 culture. […] Error bar=SEM. *P<0.05; **P<0.01. Scale bar=100 μM. One-way ANOVA. […] After 6 hours LPS stimulation and additional 30 mins ATP challenge, vehicle, 1 μM or 10 μM baicalein was delivered to the culture media for an additional 42 hours. The culture media from different groups was collected for the cytokine array, while the cells were lysed for qPCR to identify the mRNA level.

[4] = tested on: purified mouse RGCs; test: Purified RGC culture survival; format: cell-based; details: 48 hours, vehicle 35.8+/−1.3%
Protocol: as §1, §2

[5] = tested on: retinal microglia; test: qPCR of activated microglia markers and pro-inflammatory cytokines in retina after ischemia/reperfusion; format: in vivo, mice; details: 100 μM
Protocol: Quantifications of qPCR assay showing the relative expression of (B) activated microglia markers and (C) pro-inflammatory cytokines in normal mice, and mice at 1 wk and 4 wks post ischemia/reperfusion retina from vehicle or 100 μM Ba given group. Error bar-SEM. *P<0.05.

[6] = tested on: ischemia/reperfusion mice; test: Optomotor response (OMR) after ischemia/reperfusion injury; format: in vivo
Protocol: (K) Graphs showing contrast sensitivity (CS) and (L) visual acuity (VA) of optomotor response (OMR) in mice received ischemia/reperfusion and intravitreal injections of vehicle, 10 μM or 100 μM baicalein. Error bar=SEM. *P<0.05; **P<0.01.

[7] = tested on: HMC-3; test: Intracellular calcium after ATP stimulation; format: cell-based, human; details: 10 μM pretreatment 24 hrs; 50 μM ATP stimulation
Protocol: (A) Changes of [Ca^2+]i in cultured HMC-3 with pretreatment of vehicle or 10 μM baicalein for 24 hrs. […] (B) Quantification of [Ca^2]i levels in different treatment groups after stimulation (n=6 cultures/group, and 10-20 neurons were recorded from each group). […] To verify the effect of baicalein on the influence of microglia state, the measurement of intracellular calcium concentration [Ca2+]I was applied. After adding 50 μM ATP to microglial cells, the influx of [Ca2+]I was triggered immediately in naïve group.

[8] = tested on: human microglia HMC3 cell line; test: qPCR of pro-inflammatory genes after LPS and ATP challenge; format: cell-based; details: 1 μM or 10 μM for 42 hours after LPS and ATP
Protocol: as §5

[9] = tested on: ischemia/reperfusion mice; details: mouse, in vivo
Protocol: The results of electroretinogram (ERG) and optomotor response (OMR) measurements were used to determine the changes of visual functions after ischemia/reperfusion damages. For ERG measurement, positive scotopic threshold response (pSTR), scotopic a- and b-wave, M-cone and 10 Hz flicker amplitudes were obtained from the three experimental groups (i.e. vehicle, 10 μM and 100 μM baicalein) at baseline, 1 wk, 2 wks and 4 wks post-ischemia/reperfusion injury (FIGS. 2A, 2B, 2C, 2D, 2E, 2F, 2G, 2H, 2I and 2J). […] At the same time, the electrical signals from M-cone and 10 Hz-flicker stimulus were also captured (FIGS. 2F, 2G, 2H, 2I and 2J).

[10] = tested on: human microglia HMC3 cell line; test: PI3K and NFkB immunostaining in LPS and ATP challenged microglia; format: cell-based; details: 10 μM; LPS and ATP challenged human microglial cells
Protocol: (§3) FIG. 5 Baicalein suppresses PI3K and NFkB pathway in both primary mouse brain microglia and human microglia HMC3 cell line in vitro. (A) Representative bright field images of primary mouse brain microglia and images immunostained with DAPI (blue), p85 PI3K (red) and p65 NFkB (green) antibody in LPS and ATP plus vehicle or 10 μM baicalein delivered group respectively. Scale bar=40 μm (B) Representative human microglia images immunostained with DAPI (blue), p85 PI3K (red) and p65 NFkB (green) antibody in LPS and ATP plus vehicle or 10 μM baicalein delivered group respectively. Error bar=SEM. *P<0.05; **P<0.01. Scale bar=100 μm.
(§4) To further understand if the effects of suppressing microglia activation and cytokines release are related with NFkB and PI3K pathway, we examine the performance of baicalein in primary mouse microglia and human microglial cell line HMC-3.

[11] = tested on: primary mouse brain microglia; test: as above; format: cell-based; details: 10 μM; LPS and ATP challenged mouse microglial cells
Protocol: as §3, §4

[12] = 100 μM weekly intravitreal, 4 weeks after ischemia

O=c1cc(-c2ccccc2)oc2cc(O)c(O)c(O)c12 [baicalein, 5,6,7-trihydroxyflavone]
IFNγ (TH1) CD4+ T cells in superior cervical LNs ([1]; 1 and 4 weeks after ischemic injury): significantly inhibited | IL-10 (TH2) expression in superior cervical LNs ([1]; 4-week post-injury): lower than that of vehicle-treated | IL-4 (TH2) level in superior cervical LNs ([1]; 4-week time point): lower than vehicle group | number of infiltrated T cells in the retina ([1]; after ischemia/reperfusion injury): decrease | RGC density ([2]; 10 μM intravitreal injection day 1 after injury): 3,480+/−197 cells/mm^2 | RGC density ([2]; 100 μM intravitreal injection day 1 after injury): 3,604+/−137 cells/mm^2 | release of pro-inflammatory factors (CCL2, Cxcl10, IL-1α, IL-10, TNFα, etc) [3]: largely draw the release of pro-inflammatory factors to the resting level | RGC survival rate ([4]; 1 μM): 42.0+/−1.2% | RGC survival rate ([4]; 10 μM): 41.1+/−1.9% | mRNA levels of activated microglia markers Iba-1, YM-1 and Nox2 ([5]; retina 1- and 4-week post injury): relatively low mRNA levels | pro-inflammatory cytokines CCL2, IL-1α (qPCR) ([5]; retina, vs vehicle group): down-regulated | visual acuity ([6]; 10 μM intravitreal, after ischemia injury): improvement | contrast sensitivity [6, 12]: improved | visual acuity [6, 12]: improved | elevation of intracellular calcium [Ca2+]i [7]: delayed Ca^2+ influx with reduced magnitude; also recorded: suppressed effectively | IL-6 expression level [8]: significant suppression | expression of IL-10 and TNFα ([8]; vs vehicle group): dramatically dropped | mRNA fold changes of IL-1β and TNFα ([8]; vs vehicle group): consistent anti-inflammation effects | Scotopic ERG a wave and b wave (bipolar cells) [9]: protective effects | PI3K and NFkB pathway activation [10]: effectively reduce | PI3K and NFkB pathway activation [11]: effectively reduce
